Results from paper PMC6280375 (The Journal of Venomous Animals and Toxins Including …, 2018).

Test system: BjussuLAAO-II
Conditions: read-out: Km (mM) / Mean ± SD; 0.1 M HEPES pH 7, 45 °C, 2 mM OPD, 1 U/mL HRP

Structure (SMILES)	Km
CSCC[C@H](N)C(=O)O [Met]	0.6 ± 0.1 mM
N[C@@H](Cc1ccccc1)C(=O)O [Phe]	0.1 mM
CC[C@H](C)[C@H](N)C(=O)O [Ile]	2 ± 0.1 mM
CC(C)C[C@H](N)C(=O)O [Leu]	0.3 mM
N[C@@H](Cc1ccc(O)cc1)C(=O)O [Tyr]	1.1 ± 0.1 mM
N[C@@H](Cc1cnc[nH]1)C(=O)O [His]	14.1 ± 1.9 mM
NC(=O)CC[C@H](N)C(=O)O [Gln]	3.2 ± 0.3 mM
